Measurements reported in the supplement of paper PMC10307832.

What was measured:
Experiment in all cases: relative viability (nuclei count vs DMSO), 5 days (fraction); higher = more cells survive
LU99A = test system: LU99A
Summary of the method: (§1)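 Cells from lung cancer lines were seeded into 1536-well plates and, one day later, dosed by pin tool. Treatments were either a single drug or a fixed dose of an anchor drug with five library-drug doses (not always all listed) in √10 steps. After 5 days, nuclei were stained in a one-step fixation (final 0.05% Triton X-100, 1% formaldehyde, 1 ug/ml Hoechst) and counted on 4× images, and relative viability is the treated-to-vehicle nuclei ratio, as the median of duplicate plates.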

SK-LU-1 = test system: SK-LU-1
Summary of the method: as §1

NCI-H1651 = test system: NCI-H1651
Summary of the method: as §1

NCI-H441 = test system: NCI-H441
Summary of the method: as §1

NCI-H1734 = test system: NCI-H1734
Summary of the method: as §1

NCI-H460 = test system: NCI-H460
Summary of the method: as §1

HCC-366 = test system: HCC-366
Summary of the method: as §1

COR-L23 = test system: COR-L23
Summary of the method: as §1

NCI-H1650 = test system: NCI-H1650
Summary of the method: as §1

NCI-H1355 = test system: NCI-H1355
Summary of the method: as §1

BEN = test system: BEN
Summary of the method: as §1

CAL-12T = test system: CAL-12T
Summary of the method: as §1

NCI-H1975 = test system: NCI-H1975
Summary of the method: as §1

NCI-H358 = test system: NCI-H358
Summary of the method: as §1

NCI-H1437 = test system: NCI-H1437
Summary of the method: as §1

NCI-H2023 = test system: NCI-H2023
Summary of the method: as §1

NCI-H838 = test system: NCI-H838
Summary of the method: as §1

NCI-H1793 = test system: NCI-H1793
Summary of the method: as §1

NCI-H1563 = test system: NCI-H1563
Summary of the method: as §1

LOU-NH91 = test system: LOU-NH91
Summary of the method: as §1

NCI-H2342 = test system: NCI-H2342
Summary of the method: as §1

NCI-H2085 = test system: NCI-H2085
Summary of the method: as §1

## O=c1cc(N2CCOCC2)oc2c(-c3cccc4c3sc3ccccc34)cccc12 + Nc1nc2[nH]cc(CCc3ccc(C(=O)N[C@@H](CCC(=O)O)C(=O)O)cc3)c2c(=O)[nH]1 [Pemetrexed] (partner 0.2 µM)
LU99A; first compound 0.01 µM
  relative viability: 0.177
LU99A; first compound 0.03162 µM
  relative viability: 0.195
LU99A; first compound 0.1 µM
  relative viability: 0.139
LU99A; first compound 0.3162 µM
  relative viability: 0.19
LU99A; first compound 1 µM
  relative viability: 0.176
SK-LU-1; first compound 0.01 µM
  relative viability: 0.963
SK-LU-1; first compound 0.03162 µM
  relative viability: 0.975
SK-LU-1; first compound 0.1 µM
  relative viability: 1.02
SK-LU-1; first compound 0.3162 µM
  relative viability: 1
SK-LU-1; first compound 1 µM
  relative viability: 0.953
NCI-H1651; first compound 0.01 µM
  relative viability: 0.547
NCI-H1651; first compound 0.03162 µM
  relative viability: 0.564
NCI-H1651; first compound 0.1 µM
  relative viability: 0.569
NCI-H1651; first compound 0.3162 µM
  relative viability: 0.552
NCI-H1651; first compound 1 µM
  relative viability: 0.578
NCI-H441; first compound 0.01 µM
  relative viability: 0.256
NCI-H441; first compound 0.03162 µM
  relative viability: 0.272
NCI-H441; first compound 0.1 µM
  relative viability: 0.299
NCI-H441; first compound 0.3162 µM
  relative viability: 0.276
NCI-H441; first compound 1 µM
  relative viability: 0.235
NCI-H1734; first compound 0.01 µM
  relative viability: 0.453
NCI-H1734; first compound 0.03162 µM
  relative viability: 0.425
NCI-H1734; first compound 0.1 µM
  relative viability: 0.406
NCI-H1734; first compound 0.3162 µM
  relative viability: 0.412
NCI-H1734; first compound 1 µM
  relative viability: 0.396
NCI-H460; first compound 0.01 µM
  relative viability: 0.0597
NCI-H460; first compound 0.03162 µM
  relative viability: 0.0598
NCI-H460; first compound 0.1 µM
  relative viability: 0.0653
NCI-H460; first compound 0.3162 µM
  relative viability: 0.0653
NCI-H460; first compound 1 µM
  relative viability: 0.0594
HCC-366; first compound 0.01 µM
  relative viability: 0.159
HCC-366; first compound 0.03162 µM
  relative viability: 0.181
HCC-366; first compound 0.1 µM
  relative viability: 0.149
HCC-366; first compound 0.3162 µM
  relative viability: 0.144
HCC-366; first compound 1 µM
  relative viability: 0.186
COR-L23; first compound 0.01 µM
  relative viability: 0.189
COR-L23; first compound 0.03162 µM
  relative viability: 0.204
COR-L23; first compound 0.1 µM
  relative viability: 0.203
COR-L23; first compound 0.3162 µM
  relative viability: 0.201
COR-L23; first compound 1 µM
  relative viability: 0.204
NCI-H1650; first compound 0.01 µM
  relative viability: 0.397
NCI-H1650; first compound 0.03162 µM
  relative viability: 0.374
NCI-H1650; first compound 0.1 µM
  relative viability: 0.35
NCI-H1650; first compound 0.3162 µM
  relative viability: 0.341
NCI-H1650; first compound 1 µM
  relative viability: 0.34
NCI-H1355; first compound 0.01 µM
  relative viability: 1.12
NCI-H1355; first compound 0.03162 µM
  relative viability: 0.915
NCI-H1355; first compound 0.1 µM
  relative viability: 1.05
NCI-H1355; first compound 0.3162 µM
  relative viability: 1.1
NCI-H1355; first compound 1 µM
  relative viability: 0.981
BEN; first compound 0.01 µM
  relative viability: 0.79
BEN; first compound 0.03162 µM
  relative viability: 0.746
BEN; first compound 0.1 µM
  relative viability: 0.653
BEN; first compound 0.3162 µM
  relative viability: 0.89
BEN; first compound 1 µM
  relative viability: 0.705
CAL-12T; first compound 0.01 µM
  relative viability: 1.15
CAL-12T; first compound 0.03162 µM
  relative viability: 1.16
CAL-12T; first compound 0.1 µM
  relative viability: 1.29
CAL-12T; first compound 0.3162 µM
  relative viability: 1.13
CAL-12T; first compound 1 µM
  relative viability: 1.09
NCI-H1975; first compound 0.01 µM
  relative viability: 0.309
NCI-H1975; first compound 0.03162 µM
  relative viability: 0.27
NCI-H1975; first compound 0.1 µM
  relative viability: 0.294
NCI-H1975; first compound 0.3162 µM
  relative viability: 0.267
NCI-H1975; first compound 1 µM
  relative viability: 0.309
NCI-H358; first compound 0.01 µM
  relative viability: 0.166
NCI-H358; first compound 0.03162 µM
  relative viability: 0.179
NCI-H358; first compound 0.1 µM
  relative viability: 0.181
NCI-H358; first compound 0.3162 µM
  relative viability: 0.18
NCI-H358; first compound 1 µM
  relative viability: 0.173
NCI-H1437; first compound 0.01 µM
  relative viability: 0.327
NCI-H1437; first compound 0.03162 µM
  relative viability: 0.292
NCI-H1437; first compound 0.1 µM
  relative viability: 0.313
NCI-H1437; first compound 0.3162 µM
  relative viability: 0.314
NCI-H1437; first compound 1 µM
  relative viability: 0.314
NCI-H2023; first compound 0.01 µM
  relative viability: 0.284
NCI-H2023; first compound 0.03162 µM
  relative viability: 0.276
NCI-H2023; first compound 0.1 µM
  relative viability: 0.227
NCI-H2023; first compound 0.3162 µM
  relative viability: 0.249
NCI-H2023; first compound 1 µM
  relative viability: 0.161
NCI-H838; first compound 0.01 µM
  relative viability: 0.255
NCI-H838; first compound 0.03162 µM
  relative viability: 0.237
NCI-H838; first compound 0.1 µM
  relative viability: 0.241
NCI-H838; first compound 0.3162 µM
  relative viability: 0.227
NCI-H838; first compound 1 µM
  relative viability: 0.26
NCI-H1793; first compound 0.01 µM
  relative viability: 0.776
NCI-H1793; first compound 0.03162 µM
  relative viability: 0.728
NCI-H1793; first compound 0.1 µM
  relative viability: 1.01
NCI-H1793; first compound 0.3162 µM
  relative viability: 0.961
NCI-H1793; first compound 1 µM
  relative viability: 0.74
NCI-H1563; first compound 0.01 µM
  relative viability: 0.863
NCI-H1563; first compound 0.03162 µM
  relative viability: 0.778
NCI-H1563; first compound 0.1 µM
  relative viability: 0.761
NCI-H1563; first compound 0.3162 µM
  relative viability: 0.767
NCI-H1563; first compound 1 µM
  relative viability: 0.641
LOU-NH91; first compound 0.01 µM
  relative viability: 0.39
LOU-NH91; first compound 0.03162 µM
  relative viability: 0.384
LOU-NH91; first compound 0.1 µM
  relative viability: 0.377
LOU-NH91; first compound 0.3162 µM
  relative viability: 0.386
LOU-NH91; first compound 1 µM
  relative viability: 0.425
NCI-H2342; first compound 0.01 µM
  relative viability: 0.795
NCI-H2342; first compound 0.03162 µM
  relative viability: 0.753
NCI-H2342; first compound 0.1 µM
  relative viability: 0.772
NCI-H2342; first compound 0.3162 µM
  relative viability: 0.755
NCI-H2342; first compound 1 µM
  relative viability: 0.784
NCI-H2085; first compound 0.01 µM
  relative viability: 0.905
NCI-H2085; first compound 0.03162 µM
  relative viability: 0.851
NCI-H2085; first compound 0.1 µM
  relative viability: 0.849
NCI-H2085; first compound 0.3162 µM
  relative viability: 0.865
NCI-H2085; first compound 1 µM
  relative viability: 0.867
